Legend:
[1] = test system: ABCD1 KO mice; assay: Reduction of C26:0 LPC, SC-VLCFA and acyl carnitine levels in ABCD1 KO brains; type: in vivo, mouse; details: for reduction of brain C26:0 acyl carnitine levels: after 2 months of treatment
Procedure: To examine the effect of Compound 87 on VLCFA levels in the CNS, female ABCD1 KO mice were treated with vehicle, 1 or 10 mg/kg PO QD for 2 weeks (14 days; n=5 per group), 1 month (28 days; n=5 per group), 2 months (56 days; n=6 per group), or 3 months (84 days; n=6 per group). The brain samples used in this study were from the same mice used in the long term dosing study in ABCD1 knock-out mice and WT mice (see Example 2.3). Brain tissue samples were collected after 2, 4, 8, or 12 weeks of dosing with vehicle or Compound 87. Brain samples were frozen at −70° C. and were analyzed for VLCFA (LPC, SC-VLCFA, acyl-carnitines) via liquid chromatography-mass spectrometry (LCMS) as described below. The vehicle used was 2% TPGS and Compound 87 doses were prepared in 2% TPGS.
Levels of VLCFA, including straight chain very long chain fatty acids (SC-VLCFA), acyl carnitines, and lysophosphatidylcholines (LPC), in the brain were examined. SC-VLCFA were expected to be rapidly incorporated into other forms and acyl carnitines were expected to be rapidly degraded, contributing to a short expected half-life for these forms. LPC was expected to integrate into membranes, contributing to a longer expected half-life.
Brain Sample Preparation:
(i) 3 volumes of MeOH was add to each sample; (ii) homogenized tissue samples with FastPrep (FP120) at 4.5 intensity for 25 seconds; and (iii) aliquoted tissue lysates.
LPC and Acylcarnitine Extraction with CHCl3/MeOH Liquid-Liquid Extraction:
Added 1 mL MeOH, then added 1 mL […] to the brain tissue lysates; incubated 30 minutes at room temperature; added 1 mL CHCl3 and 0.75 mL H2O; incubated 30 minutes; centrifuged max for 10 minutes; transferred lower layer to new vials; organic phase was dried using Turbo-Vac. The resulting residue was re-constituted with MeOH.
3-Step Chemical Derivatization of SC-VLCFA Using Dimethylaminoethanol (VLCFA-DMAE):
(i) added oxalyl chloride (2 mol/l oxalyl chloride in CH2Cl2, 200 ul) to the dried mixture, incubated at 65° C. for 5 minutes; (ii) added 60 uL dimethylaminoethanol, incubated at 25° C. for 5 minutes and dried down; (iii) added 100 uL methyl iodide, incubated briefly and dried down. The resulting residue was re-constituted with ethanol (EtOH).
LCMSMS Detection of VLCFA (e.g., Spingomyelin (SM) and LPC and Derivatized VLCFA (FA-DMAE)):
LPC Detection: • Column: Discovery C18, 2.1×20 mm • Phase A: 50% MeOH/5 mM AF; Phase B: 2-propanol • MS: 4000 Qtrap operated in ESI MRM positive mode
FA-DMAE Detection: • Column: Synergi Polar RP, 2×150 mm • Phase A: H2O/0.1% FA; Phase B: ACN/0.1% FA • MS: 4000 Qtrap operated in ESI MRM positive mode

[2] = Metabolic intrinsic clearance in human hepatocytes; type: in vitro ADME; details: cryopreserved hepatocytes in suspension, pH 7.5, 0.5 million cells/mL, incubation for 4 hours
Procedure: The metabolic intrinsic clearance (CLint) of Compound 87 was determined in human, monkey, dog, rat, and mouse hepatocytes. Cryopreserved human hepatocytes (Lot Hue50c), monkey hepatocytes (cynomolgus; Lot Cy328), dog hepatocytes (beagle, Lot Db235), rat hepatocytes (Sprague Dawley; NNH), and mouse hepatocytes (CD-1; Lot Mc522) were obtained from ThermoFisher (Paisley, UK). In separate experiments, compound 87 (1 μM) was incubated with hepatocytes from each species (0.5 million cells/mL, suspension) in Dulbecco's Modified Eagle's Medium (DMEM) supplemented with 4-(2-Hydroxyethyl)piperazine-1-ethanesulfonic acid (HEPES, 9 mM) and fructose (2.2 mM) (pH 7.5). Samples were quenched with acetonitrile and analyzed by LC-MS/MS. The mean CLint for Compound 87 in human, monkey, dog, rat, and mouse hepatocytes after incubation for 4 hours was determined to be ≤2.5, ≤2.5, 7.2, 23.6 and 10.7 μL/min/million cells. Based on these date, Compound 87 was low to moderately metabolized in hepatocytes in mouse, rat, dog, monkey, and human, and the rank order of stability at […] was approximately human>monkey>dog>mouse>rat. […] The metabolic stability of Compound 87 was not expected.

[3] = 1 mg/kg or 10 mg/kg PO QD, after 2 weeks of dosing

SMILES: O=C(Nc1ccn(-c2ccnc(F)c2)n1)C1(c2ccccc2F)CC1 [Compound 87, 1-(2-fluorophenyl)-N-[1-(2-fluoro-4-pyridyl)pyrazol-3-yl]cyclopropanecarboxamide]
- reduction in brain C26:0 LPC ([1]; 1 mg/kg PO QD, 2 months): ~30%
- reduction of brain C26:0 SC-VLCFA levels ([1]; 1 mg/kg PO QD, 2 months): about 30%
- reduction in brain C26:0 LPC ([1]; 1 mg/kg PO QD, 3 months): ~30%
- reduction of brain C26:0 SC-VLCFA levels ([1]; 1 mg/kg PO QD, 3 months): about 50%
- reduction of brain C26:0 acyl carnitine levels ([1]; 1 mg/kg PO QD): ~50%
- brain C24:0 LPC levels (normalized by C16:0 LPC levels) ([1]; 1 mg/kg or 10 mg/kg PO QD, 3 months): significant reduction
- brain LPC levels [1, 3]: no changes
- brain SC-VLCFA levels [1, 3]: no changes
- reduction in brain C26:0 LPC ([1]; 10 mg/kg PO QD, 2 months): ~40%
- reduction of brain C26:0 SC-VLCFA levels ([1]; 10 mg/kg PO QD, 2 months): about 55%
- reduction of brain C26:0 acyl carnitine levels ([1]; 10 mg/kg PO QD): ~70%
- brain C24:0 SC-VLCFA level ([1]; 10 mg/kg PO QD, after 3 months of dosing): significant reduction
- hepatocyte CLint at 1 μM [2]: ≤ 2.5 µL/min/1e6 cells
